Like-named read-outs stand apart in the source and are kept apart here.
Key:
[1] = tested on: CFU-GM in mouse femoral marrow; conditions: in vivo
Text: Mouse spleen conditioned-medium, at a concentration of 2%, was used in this assay. The medium and semi-solid culture mix were procured from Stem Cell Technologies in Vancouver, BC.

[2] = tested on: polymorphonuclear leukocytes; conditions: U.S. Pat. No. 4,636,507; cited from earlier work
[3] = tested on: PAPH; assay: PAPH inhibition / DAG production in TNF-stimulated human mesangial cells; assay type: cell-based; conditions: specific activation pathway that does not involve PI
Text: These inventive compounds and pharmaceutical compositions are capable of, among other things, inhibiting subspecies of LPAAT and PAPH enzymes with substrate specificity for intermediates with 1,2-diunsaturated and 1-alkyl, 2-unsaturated subspecies. […] In contrast, the inventive compounds affect that subset of PAPH and LPAAT relating to substrates with unsaturated fatty acids other than arachidonate in the sn-2 position, not the housekeeping forms of these enzymes that serve the PI pathway.

[4] = tested on: tumor necrosis factor, TNF; conditions: cited from earlier work
[5] = tested on: Balb/3T3 cells; assay: PDGF-induced proliferation of Balb/3T3 cells (tritiated thymidine); assay type: cell-based; conditions: Mus musculus, BALB/3T3, 24 h; PDGF-stimulated; FIGS. 2 and 4; read-out: concentrations inhibiting proliferation of Balb/3T3 cells stimulated by PDGF
Experimental: Disregulated PDGF-proliferative response has been linked to a variety of diseases, including, e.g., restenosis, atherosclerosis, fibrosis, and tumor cell angiogenesis. Balb/3T3 cells respond vigorously to PDGF stimulation, and are useful in vitro models for further study of PDGF-induced proliferation.
Balb/3T3 cells were plated in low serum-containing medium for 24 hours prior to stimulation with various concentrations of inventive compounds nos. 3556 and 4500. PDGF was added at varying concentrations along with tritiated thymidine. The cells were allowed to incubate for one day, following addition of PDGF and thymidine. Twenty-four hours later, the cells were harvested and counted by liquid scintillation counting. FIGS. 2 and 4 report data for inventive compounds nos. 3556 and 4500, respectively, obtained in this proliferation assay. The results shown in each respective figure illustrate that inventive compounds nos.

[6] = tested on: Balb/3T3 cells; assay: Viability (cytotoxicity) assay of Balb/3T3 cells with BCECF; assay type: cell-based; conditions: at the concentrations at which the compounds inhibit proliferation; vs control value of 100%; FIGS. 3 and 5
Experimental: In conjunction with the Balb/3T3 proliferation assay, a related viability assay was conducted to assess the cytotoxicity of compounds which inhibit proliferation in this system. The assay protocol was identical to that performed above except that tritiated thymidine was not added after the 24 hour incubation with PDGF. In this cytotoxicity assay, after incubating the cells, a 10 μM solution of BCECF was added and the cells were incubated for 30 minutes at 37° C. Following this incubation, BCECF was replaced with PBS and the plate read for fluorescence in a Millipore cytofluorometer. Data obtained was plotted as a percent of control versus concentration of inventive compound tested. FIGS. 3 and 5 represent the results of this viability assay, for compounds nos. 3556 and 4500, respectively.

[7] = tested on: HIV long terminal repeat (LTR) promotor; assay: Inhibition of reporter gene (alkaline phosphatase) expression directed by HIV-LTR promotor in 293-EBNA cells; assay type: cell-based; conditions: Human immunodeficiency virus 1; reporter gene directed by HIV-LTR promotor in 293-EBNA cells; FIGS. 17, 19, 21
Text: This example is an assay used to measure anti-viral activity of inventive compounds nos. […] This assay is predictive of anti-viral activity for retroviruses. Specifically,a plasmid construct, pHIV.AP, using the human immunodeficiency virus (HIV) long terminal repeat (LTR) promotor [derived from pU3R-III CAT (Sodroski et al. Science, Vol. 227, page 171, 1985) to direct the expression of secreted human placental alkaline phosphatase reporter gene and an expression vector for a 72 amino acids tat protein from HIV (Frankel et al., Cell, Vol. 55, pages 1189-1193, 1988) were transfected into a tumor cell line (e.g., 293-EBNA cells). The stably transfected cells were treated with various concentrations of the inventive compounds. The expression of the alkaline phosphatase (AP) reporter gene in the individual cultures was then measured by following the change in absorbance at A405 of cell conditioned media in the presence of a suitable substrate (e.g., ortho-nitrophenol phosphate). Berger et al., Gene, Vol. 66, pages 1-10, 1988.

[8] = Viability of 293-EBNA cells (alamarBlue colorimetric assay); assay type: cell-based; conditions: human, 293-ebna cells; alamarBlue; FIGS. 18, 20, 21; read-out: LD50, 293-EBNA cells
Experimental: (§1) The effect of respective inventive compounds on the viability of 293-EBNA cells was measured by a colorimetric assay that uses the alamarBlue® dye (purchased from Alamar Biosciences, Inc.) to report cell proliferation, viability and cytotoxicity. This dye is an oxidation-reduction (Redox) indicator that changes color in response to chemical reduction of growth medium resulting from cell growth. The general procedure involves adding alamarBlue® in an amount equal to 10% of the culture volume, returning the culture to incubator for four hours, and measuring the absorbance at 570 nm after subtraction of background absorbance at 600 nm.

[9] = tested on: 293-EBNA cells; assay: as above; assay type: cell-based
Experimental: as §1

[10] = tested on: JR-CSF strain of HIV-1; assay: HIV-1 JR-CSF infection of human peripheral blood lymphocytes (p24 antigen ELISA); assay type: cell-based; conditions: JR-CSF HIV-1, FIG. 22
Experimental: 3556, to prevent promotion of fresh isolates of JR-CSF strain of HIV-1 infection of human peripheral blood lymphocytes (PBL).
In a protocol for infecting a PBL cell suspension, JR-CSF HIV-1 was clarified at low-speed centrifugation (2,000-3,000 rpm) or filtration and stored in aliquots at -70° C. To maintain consistent titers, HIV-1 aliquots were not subjected to repeated freezing and thawing and any remainder was discarded. Virus aliquots were thawed at room temperature or under cold running water for more rapid thawing and maintained in ice after thawing. Just prior to infection of PBL cells, the supernatant or dilution were warmed to room temperature.
Human PBL cells taken from a suitable donor were centrifuged down at 1000 rpm for 5-10 minutes at room temperature. While cells were spinning, the virus inoculum was prepared in medium by adding 10 μg/ml Polybrene®. The centrifuged cells were resuspended in virus inoculum, using 1 ml of virus inoculum per 10^7 cells. A more efficient HIV-1 infection is obtained with smaller amounts of inoculum. The cells were incubated at 37° C. in the presence of virus inoculum for 2 hours, shaking the suspension every half hour. After 2 hours, the suspension was spun down, the virus inoculum removed and the cells were washed with 10 ml of fresh media. […]

O=c1[nH]cc(F)c(=O)[nH]1 [5-fluorouracil]
CFU-GM in mouse femoral marrow [1]: no CFU-GM were detectable

CC(O)CCCCn1c(=O)c2c(ncn2C)n(C)c1=O (centres unmarked) [M1, 1-(5-hydroxyhexyl)-3,7-dimethylxanthine]
chemotaxis in polymorphonuclear leukocytes [2]: enhance chemotaxis

CC(=O)CCCCn1c(=O)c2c(ncn2C)n(C)c1=O [PTX, 1-(5-oxohexyl)-3,7-dimethylxanthine]
inhibition of PAPH [3]: blocks PAPH | BMT-related complications ([4]; co-administered PTX and GM-CSF, allogeneic bone marrow transplant patients): reduced BMT-related complications | TNF levels ([4]; co-administered PTX and GM-CSF, patients undergoing allogeneic bone marrow transplant): decreased levels of tumor necrosis factor, TNF | TNF levels ([4]; normal volunteers): TNF levels were higher | chemotaxis in polymorphonuclear leukocytes [2]: enhance chemotaxis

CCCCCCCCNCCCCCCCCCCCn1c(=O)c2c(ncn2C)n(C)c1=O [compound no. 3556, 1-(11-octylaminoundecyl)-3,7-dimethylxanthine]
minimal effective concentration [5]: < 30 µM | cytotoxicity to Balb/3T3 cells [6]: not cytotoxic to any cells | IC50 [7]: ~2.5 µM | CC50 [8]: ~12.5 µM | concentration at which cytotoxicity becomes significant [9]: > 10 µM | decrease of HIV-1 infection of PBL ([10]; 1 μM): decreased infection by about two to three fold | HIV-1 infection of PBL ([10]; 10 and 20 μM): virtually eliminated viral infection
